Assay results from patent publication US10407445B2, “Hepatitis C virus inhibitors” (ENANTA PHARMACEUTICALS, INC., priority 2013, dated 2019).

How the values were obtained:
[1] = system: GT3a-S52 replicon; assay: Stable replicon assay, comparison to daclatasvir, GT3a-S52; assay type: cell-based; conditions: Hepatitis C virus
Excerpt: The GT3a-S52 replicon plasmid pSGRlucneo-GT3a-S52-HDVR-(ISH) was synthesized by Genscript. This plasmid encodes a GT3a (strain S52, accession GU814264) bicistronic subgenomic replicon encoding the hRluc-Neo reporter gene in the first cistron and NS3-NS5B, driven by an encephalomyocarditis virus (EMCV) internal ribosome entry site (IRES), in the second cistron. The hepatitis delta ribozyme (HDVR) was included after the HCV 3′ NTR followed by a unique SpeI restriction site for linearization. This replicon encodes three cell culture adaptive mutations, P1226S (NS3), D1437H (NS3), and S2210I (NS5A), as described previously (Saeed et al 2012 Antimicrob. Agents Chemother. 54: 1878-1887). The GT4a-ED43 replicon plasmid pSGRlucneo-GT4a-ED43-HDVR-(KG) was synthesized by Genscript. […]
Stable HCV replicon cell lines were grown in complete media (Dulbecco's modified Eagle medium [DMEM], 2 mM L-glutamine, 0.1 mM essential amino acids, 1 mM sodium pyruvate, 10% fetal bovine serum) with the addition 500 μg/ml […] (G418). […] For stable and transient replicon assays, luciferase activity of compound-treated cells was measured relative to DMSO-treated cells after 72 h incubation using RENILLA-GLO™ Luciferase Assay (Promega). […]

[2] = system: HCV genotype 1a replicon, NS5A K24E Q30K; assay: Transient replication assay, GT1a NS5A K24E Q30K; assay type: cell-based; conditions: Hepatitis C virus

COC(=O)N[C@H](C(=O)N1CCC[C@H]1c1nc(-c2ccc(-c3ccc(-c4c[nH]c([C@@H]5CCCN5C(=O)[C@@H](NC(=O)OC)C(C)C)n4)cc3)cc2)c[nH]1)C(C)C [Daclatasvir, reference compound]
EC50 [1]: 1.2 nM
EC50 [2]: 20 nM

COC(=O)N[C@H](C(=O)N1C[C@]2(CCCOC2)C[C@H]1c1ncc(-c2ccc(-c3ccc4c(ccc5nc([C@@H]6C[C@@H]7CCC[C@@H]7N6C(=O)[C@@H](NC(=O)OC)C(C)C)[nH]c54)c3)cc2)[nH]1)C(C)C [Compound 16]
EC50 [1]: 4.7 nM
EC50 [2]: 7.9 nM
